Where “and” joins values, the source holds several entries; their conditions need not be identical. Equal values may be shown once.
Test system: 126254-015-R-J1-PDC complex spheroid growth, % test/control
Test: Anticancer human tumor 126254-015-R-J1-PDC patient-derived soft tissue sarcoma cell line growth inhibition [Asc]
Conditions: for viability, T/C: stronger effect = lower value
Procedure, shortened: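 Complex solid-tumor spheroids incorporating human endothelial and mesenchymal stem cells received single agents or combinations over half-log dilution ranges anchored to clinical Cmax.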
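Note: spheroids exposed to compound for seven days.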
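Throughout, for viability, T/C: 100% = DMSO vehicle control wells.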

Q: `COc1c(OCCCN2CCOCC2)ccc2c3n(c(=NC(=O)c4cnc(N)nc4)nc12)CCN3` was tested. Which viability, T/C (compound 0.00316 µM) did it give?
A: The viability, T/C was 98.8% and 93% and 88.2%.

Q: And the viability, T/C (compound 0.01 µM)?
A: The viability, T/C was 87.4% and 90.6% and 95.3%.

Q: And the viability, T/C (compound 0.0316 µM)?
A: Its viability, T/C is 60.5% and 65.2% and 66.9%.

Q: What about the viability, T/C (compound 0.1 µM) of the same compound?
A: The viability, T/C was 37.3% and 29.9% and 45.1%.

Q: What about the viability, T/C (compound 0.316 µM) of the same compound?
A: Its viability, T/C is 16.1% and 17.7% and 24.1%.

Q: And the viability, T/C (compound 1 µM)?
A: Its viability, T/C is 9.83% and 12.4% and 16.3%.

Q: What about the IC50 (curve of compound) of the same compound?
A: Its IC50 is 53.6 nM and 52.5 nM and 76 nM.

Q: Which IC50 (curve of first compound, second compound 0.01 µM) does the source give for `O=C(c1ccc(F)c(F)c1Nc1ccc(I)cc1F)N1CC(O)([C@@H]2CCCCN2)C1` + CNC(C)C(=O)NC1CN(S(=O)(=O)c2cccc(S(=O)(=O)N3CCC4CCC(C(=O)NC(c5ccccc5)c5ccccc5)N4C(=O)C(NC(=O)C(C)NC)C3)c2)CCC2CCC(C(=O)NC(c3ccccc3)c3ccccc3)N2C1=O here?
A: The IC50 was 594 nM.

Q: What about the IC50 (curve of first compound, second compound 0.0316 µM) of the same compound?
A: The IC50 was 377 nM.

Q: What about the IC50 (curve of first compound, second compound 0.1 µM) of the same compound?
A: The IC50 was 164 nM.

Q: What about the IC50 (curve of first compound, second compound 0.316 µM) of the same compound?
A: Its IC50 is 86.6 nM.

Q: What about the IC50 (curve of first compound, second compound 1 µM) of the same compound?
A: Its IC50 is 85.2 nM.

Q: And the viability, T/C (second compound 0.01 µM, first compound 0.00316 µM)?
A: The viability, T/C was 82.4%.

Q: What about the viability, T/C (second compound 0.01 µM, first compound 0.01 µM) of the same compound?
A: The viability, T/C was 87.6%.

Q: What about the viability, T/C (second compound 0.01 µM, first compound 0.0316 µM) of the same compound?
A: Its viability, T/C is 79.8%.

Q: What about the viability, T/C (second compound 0.01 µM, first compound 0.1 µM) of the same compound?
A: Its viability, T/C is 90.9%.

Q: What about the viability, T/C (second compound 0.01 µM, first compound 0.316 µM) of the same compound?
A: Its viability, T/C is 66.9%.

Q: What about the viability, T/C (second compound 0.01 µM, first compound 1 µM) of the same compound?
A: Its viability, T/C is 36%.

Q: And the viability, T/C (second compound 0.0316 µM, first compound 0.00316 µM)?
A: Its viability, T/C is 84.2%.

Q: What about the viability, T/C (second compound 0.0316 µM, first compound 0.01 µM) of the same compound?
A: Its viability, T/C is 72.7%.

Q: And the viability, T/C (second compound 0.0316 µM, first compound 0.0316 µM)?
A: Its viability, T/C is 67.9%.

Q: What about the viability, T/C (second compound 0.0316 µM, first compound 0.1 µM) of the same compound?
A: Its viability, T/C is 67.2%.

Q: What about the viability, T/C (second compound 0.0316 µM, first compound 0.316 µM) of the same compound?
A: The viability, T/C was 55.1%.

Q: And the viability, T/C (second compound 0.0316 µM, first compound 1 µM)?
A: Its viability, T/C is 33%.

Q: What about the viability, T/C (second compound 0.1 µM, first compound 0.00316 µM) of the same compound?
A: Its viability, T/C is 59.7%.

Q: And the viability, T/C (second compound 0.1 µM, first compound 0.01 µM)?
A: The viability, T/C was 67.3%.

Q: What about the viability, T/C (second compound 0.1 µM, first compound 0.0316 µM) of the same compound?
A: Its viability, T/C is 67.5%.

Q: What about the viability, T/C (second compound 0.1 µM, first compound 0.1 µM) of the same compound?
A: Its viability, T/C is 59.6%.

Q: What about the viability, T/C (second compound 0.1 µM, first compound 0.316 µM) of the same compound?
A: Its viability, T/C is 37%.

Q: And the viability, T/C (second compound 0.1 µM, first compound 1 µM)?
A: The viability, T/C was 28.1%.

Q: And the viability, T/C (second compound 0.316 µM, first compound 0.00316 µM)?
A: The viability, T/C was 62.5%.

Q: And the viability, T/C (second compound 0.316 µM, first compound 0.01 µM)?
A: Its viability, T/C is 62.8%.

Q: And the viability, T/C (second compound 0.316 µM, first compound 0.0316 µM)?
A: Its viability, T/C is 54.6%.

Q: What about the viability, T/C (second compound 0.316 µM, first compound 0.1 µM) of the same compound?
A: Its viability, T/C is 51.3%.

Q: And the viability, T/C (second compound 0.316 µM, first compound 0.316 µM)?
A: The viability, T/C was 30.1%.

Q: And the viability, T/C (second compound 0.316 µM, first compound 1 µM)?
A: The viability, T/C was 19.1%.

Q: What about the viability, T/C (second compound 1 µM, first compound 0.00316 µM) of the same compound?
A: Its viability, T/C is 56.9%.

Q: And the viability, T/C (second compound 1 µM, first compound 0.01 µM)?
A: Its viability, T/C is 54.1%.

Q: What about the viability, T/C (second compound 1 µM, first compound 0.0316 µM) of the same compound?
A: Its viability, T/C is 54.3%.

Q: And the viability, T/C (second compound 1 µM, first compound 0.1 µM)?
A: The viability, T/C was 49.3%.

Q: What about the viability, T/C (second compound 1 µM, first compound 0.316 µM) of the same compound?
A: The viability, T/C was 27%.

Q: And the viability, T/C (second compound 1 µM, first compound 1 µM)?
A: Its viability, T/C is 21.1%.

Q: How did the IC50 (curve of first compound, second compound 0.03 µM) turn out when `C=C(F)C(=O)N1CCN(c2nc(OCC3CCCN3C)nc3c2CCN(c2cccc4cccc(Cl)c24)C3)CC1CC#N` (configuration not stated) + CCN1C(C(=O)NC23CCC(C(=O)O)(CC2)CC3)C(c2cccc(Cl)c2F)C2(C(=O)Nc3cc(Cl)ccc32)C12CCCCC2 was run?
A: Its IC50 is 2430 nM.

Q: And the IC50 (curve of first compound, second compound 0.0949 µM)?
A: Its IC50 is 2640 nM.

Q: And the IC50 (curve of first compound, second compound 0.3 µM)?
A: The IC50 was 2730 nM.

Q: What about the IC50 (curve of first compound, second compound 0.949 µM) of the same compound?
A: The IC50 was 2740 nM.

Q: And the IC50 (curve of first compound, second compound 3 µM)?
A: The IC50 was 2920 nM.

Q: And the viability, T/C (second compound 0.03 µM, first compound 0.0316 µM)?
A: The viability, T/C was 105%.

Q: What about the viability, T/C (second compound 0.03 µM, first compound 0.1 µM) of the same compound?
A: Its viability, T/C is 103%.

Q: What about the viability, T/C (second compound 0.03 µM, first compound 0.316 µM) of the same compound?
A: The viability, T/C was 102%.

Q: And the viability, T/C (second compound 0.03 µM, first compound 1 µM)?
A: The viability, T/C was 95.9%.

Q: What about the viability, T/C (second compound 0.03 µM, first compound 3.16 µM) of the same compound?
A: Its viability, T/C is 36.5%.

Q: And the viability, T/C (second compound 0.03 µM, first compound 10 µM)?
A: Its viability, T/C is 0.16%.

Q: What about the viability, T/C (second compound 0.0949 µM, first compound 0.0316 µM) of the same compound?
A: The viability, T/C was 101%.

Q: What about the viability, T/C (second compound 0.0949 µM, first compound 0.1 µM) of the same compound?
A: The viability, T/C was 104%.

Q: What about the viability, T/C (second compound 0.0949 µM, first compound 0.316 µM) of the same compound?
A: Its viability, T/C is 94.9%.

Q: What about the viability, T/C (second compound 0.0949 µM, first compound 1 µM) of the same compound?
A: The viability, T/C was 93.8%.

Q: And the viability, T/C (second compound 0.0949 µM, first compound 3.16 µM)?
A: Its viability, T/C is 41.9%.

Q: And the viability, T/C (second compound 0.0949 µM, first compound 10 µM)?
A: Its viability, T/C is 0.16%.

Q: What about the viability, T/C (second compound 0.3 µM, first compound 0.0316 µM) of the same compound?
A: The viability, T/C was 101%.

Q: And the viability, T/C (second compound 0.3 µM, first compound 0.1 µM)?
A: Its viability, T/C is 105%.

Q: And the viability, T/C (second compound 0.3 µM, first compound 0.316 µM)?
A: The viability, T/C was 97.4%.

Q: And the viability, T/C (second compound 0.3 µM, first compound 1 µM)?
A: The viability, T/C was 93.9%.

Q: What about the viability, T/C (second compound 0.3 µM, first compound 3.16 µM) of the same compound?
A: The viability, T/C was 43.6%.

Q: What about the viability, T/C (second compound 0.3 µM, first compound 10 µM) of the same compound?
A: Its viability, T/C is 0.16%.

Q: What about the viability, T/C (second compound 0.949 µM, first compound 0.0316 µM) of the same compound?
A: Its viability, T/C is 107%.

Q: And the viability, T/C (second compound 0.949 µM, first compound 0.1 µM)?
A: Its viability, T/C is 123%.

Q: What about the viability, T/C (second compound 0.949 µM, first compound 0.316 µM) of the same compound?
A: The viability, T/C was 100%.

Q: And the viability, T/C (second compound 0.949 µM, first compound 1 µM)?
A: The viability, T/C was 101%.

Q: And the viability, T/C (second compound 0.949 µM, first compound 3.16 µM)?
A: Its viability, T/C is 42.7%.

Q: And the viability, T/C (second compound 0.949 µM, first compound 10 µM)?
A: The viability, T/C was 0.17%.

Q: What about the viability, T/C (second compound 3 µM, first compound 0.0316 µM) of the same compound?
A: Its viability, T/C is 104%.

Q: And the viability, T/C (second compound 3 µM, first compound 0.1 µM)?
A: Its viability, T/C is 114%.

Q: What about the viability, T/C (second compound 3 µM, first compound 0.316 µM) of the same compound?
A: The viability, T/C was 103%.

Q: What about the viability, T/C (second compound 3 µM, first compound 1 µM) of the same compound?
A: The viability, T/C was 98.9%.

Q: And the viability, T/C (second compound 3 µM, first compound 3.16 µM)?
A: The viability, T/C was 46.3%.

Q: And the viability, T/C (second compound 3 µM, first compound 10 µM)?
A: The viability, T/C was 0.21%.
